Data from PubChem BioAssay AID179 (DTP/NCI, 2004).
The source made the active and inactive calls.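 The calls were made as follows: active = compounds giving half or more protection of infected cells from virus-caused growth loss, again on retest; inactive = the rest.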 Where a SMILES comes first, the peptide text is derived from it.

Test system: CEM cells HIV-1 protection, formazan growth assay
Test: NCI AIDS Antiviral Assay
Details: for IC50: measured here: growth of uninfected CEM cells
How it was run: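 Screen of anti-HIV-1 activity in human CEM cells using a formazan-based growth measurement at five drug concentrations. Hits with 50% or greater protection were repeated, and confirmation required reproducible complete protection.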

Row | SMILES | outcome | EC50 [µM] | IC50 [µM]
1 | COc1ccc(C(c2ccc3cccnc3c2O)c2ccc3cccnc3c2O)cc1 | inactive |  | 
2 | Cc1cc2c(=O)cc(-c3ccncc3)oc2c(C(=O)O)c1C |  | > 851 | > 851
3 | CC1CN=C(Nc2ccc(F)c(Cl)c2)S1 (stereo not given) |  | > 200 | 132
4 | COC(=O)C1CC2C=CC=CC(=O)C2(C)C1 (stereo not given) |  | > 251 | 33.1
5 | CC(C)(C)c1cc(C(=O)/C=C/c2ccccc2)cc(C(C)(C)C)c1O |  | > 21.4 | > 21.4
6 | O=C(C(/C=N/C(=S)NC1C(=O)Nc2ccccc21)=C(/O)c1ccccc1)c1ccccc1 (stereo not given) |  | > 200 | 41.7
7 | COC(=O)c1cccc(C)c1C1CN=NC12Cc1c(ccc(C)c1C)C2=O (stereo not given) |  | > 200 | > 200
8 | O=C(O)CCSSCCCS(=O)O |  | 105 | 191
9 | N#Cc1ccc(CSc2ncnc3nc[nH]c23)cc1 |  | > 200 | 81.3
10 | COc1ccc([B-]23OCC[N+]2(CNC(=O)C2=C(O)C4(O)C(=O)C5=C(O)c6c(O)cccc6C(C)(O)C5CC4C(N(C)C)C2=O)CCO3)cc1 (stereo not given) |  | > 100 | 47.9
11 | CCC12C=CCN3CC[C@@]4(c5cc([C@@]6(C(=O)OC)CC7CN(C[C@]8(CC)OC78)[C@H](CC(C)=O)Cc7c6[nH]c6ccccc76)c(OC)cc5N(C)[C@H]4[C@@](O)(C(=O)OC)[C@@H]1OC(C)=O)[C@H]32 (stereo not given in full) | inactive |  | 
12 | S=C(Oc1ccccc1)SSC(=S)Oc1ccccc1 |  | > 200 | 19.1
13 | CCSc1nnc(Sc2c3ccccc3nc3ccccc23)s1 |  | > 200 | 2.82
14 | C=C1CC[C@]2(C)C3CC[C@]4(C)C(C(C)CCC(=O)OC)CCC4[C@@H]3CC[C@@H]2C1 (stereo not given in full) |  | > 87.1 | > 87.1
15 | CC(=O)NC(CCCNC(=O)NCCCl)C(=O)NCc1ccccc1 (stereo not given) |  | > 676 | > 676
16 | COc1cccc(C2c3cc4c(cc3OC(NNS(=O)(=O)c3ccc(C)cc3)C2C)OCO4)c1OC (stereo not given) |  | > 200 | 1.86
17 | Brc1nc2c3ccccc3ncn2c1Br |  | > 30.2 | 14.8
18 | OC(C#CCN1CCCC1)(c1ccccc1)c1ccc(Cl)cc1.[C-]#[O+].[C-]#[O+].[C-]#[O+].[C-]#[O+].[C-]#[O+].[C-]#[O+].[Co].[Co] (stereo not given) |  | > 200 | 5.62
19 | Cc1ccc(Nc2nc(=O)[nH]c(=O)[nH]2)cc1N=[N+]=[N-] |  | > 200 | > 200
20 | Cc1cccc(Cl)c1NC(N)=S |  | > 36.3 | > 36.3
21 | CCOC(=O)C(C)(c1cn(C)c2ccccc12)c1cn(C)c2ccccc12 | inactive |  | 

Row | SMILES | outcome | EC50 [µM] | IC50 [µM]
22 | Cn1c(-c2cccs2)cc(-c2ccccc2)c1-c1cccs1 |  | > 200 | > 200
23 | CC1(C)O[C@@H]([C@H](O)CO)[C@H](O)[C@@H](C2SCCCS2)O1 |  | > 200 | > 200
24 | COc1ccc(/C(Cl)=C(\C#N)c2ccc(OC)c(OC)c2)cc1OC |  | > 200 | 58.9
25 | CSc1c(C(C)=O)c(O)n(-c2ccc(C)cc2)c(=O)c1C#N |  | > 200 | 63.1
26 | O=C1C2CC3OC3CC2C(=O)N1CN1C(=O)C2CC3OC3CC2C1=O (stereo not given) |  | > 200 | > 200
27 | CC1=CC(=O)N(c2c(C)cccc2Cl)C(C)N1 (stereo not given) |  | > 1000 | > 1000
28 | S=c1nn[nH]n1-c1ccccc1.[Zn+2] |  | > 2.57 | > 2.57
29 | CC1CCCN2C(=O)CN(C3CCCCC3)CC(=O)N12 (stereo not given) |  | > 200 | > 200
30 | CC(=O)n1[nH]c(=O)n(-c2ccccc2)c1=O |  | > 200 | > 200
31 | CC(C)=CC(=O)O[C@@H]1CC(C)(C)CC2C3=CCC4[C@]56CC[C@](O)(OC5)C(C)(C)C6CC[C@@]4(C)C3(C)CC[C@]21C(=O)O (stereo not given in full) |  | > 200 | 10.2
32 | O=c1c2ccccc2oc2ccccc12 (tested in a mixture with another compound) |  | > 11 | 0.776
33 | CC1(C)CC(=O)C2=C(C1)NC1=C(C2)C(=O)CC(C)(C)C1 |  | > 200 | > 200
34 | COc1ccc(CCN(C)C(=O)CC(C#N)(c2ccccc2)c2ccc(OC)c(OC)c2)cc1OC (stereo not given) |  | > 200 | 95.5
35 | O=C(Cn1c2ccc(Br)cc2c2nc3ccccc3nc21)Nc1ccccc1 |  | > 100 | > 100
36 | COc1ccc(C2(O)CCCCC2)cc1 |  | > 66.1 | > 66.1
37 | O=C1CCC2(CC(Br)C(=O)c3ccccc32)C(=O)N1 (stereo not given) |  | > 407 | 81.3
38 | CCN(CC)CCNC(=O)c1nn(C)c(=S)[nH]c1=S | inactive |  | 
39 | CC(C)(CCCCC(C)(C)NC1=NCCO1)NC1=NCCO1 |  | > 200 | 77.6
40 | CC(=O)NC(CCC(=O)c1ccc(Cl)cc1)C(=O)O (stereo not given) |  | > 200 | > 200
41 | Cc1c2n(c(=O)[nH]c1=O)C1OC(CO)C(N=[N+]=[N-])C1O2 (stereo not given) |  | > 200 | > 200
42 | O=[N+]([O-])c1ccccc1P1(=O)OCCO1 |  | > 200 | > 200

Row | SMILES | outcome | EC50 [µM] | IC50 [µM]
43 | CCOC(=O)C(NC(=O)Nc1ccccc1)(Nc1cccc(Cl)c1)C(F)(F)F (stereo not given) |  | > 200 | 195
44 | c1ccc(N2N=NC3C4CC(C5COCC54)C32)cc1 (stereo not given) |  | > 200 | > 200
45 | COC(=O)C12CCC(C)(C)CC1C1=CCC3C4(C)CC(O)C(O)C(C)(C(=O)OC)C4CCC3(C)C1(CO)CC2 (stereo not given) | inactive |  | 
46 | Cc1ccnc2c1C(=O)C(=O)C=C2N1CCC(C)CC1 | inactive |  | 
47 | COC(=O)c1nc(-c2ccc(Cl)c(Cl)c2)nc2ccccc12 | inactive |  | 
48 | Cc1c(NC(=O)Nc2ccc(F)cc2)c(=O)n(-c2ccccc2)n1C |  | > 200 | > 200
49 | CCCCCCCC(=O)OCC1OC(n2cc(F)c(=O)[nH]c2=O)C(NC(=O)OCc2ccccc2)C(OC(=O)CCCCCCC)C1O (stereo not given) |  | > 10.7 | > 10.7
50 | COC(=O)C1OC12CCCCC2 (stereo not given) |  | > 200 | > 200
51 | CC1(C)CC2CCC(O)C2C(CCO)N1 (stereo not given) |  | > 200 | > 200
52 | Cc1ccc(C)c(N2C(=O)C(=O)C(c3nc4ccccc4o3)/C(=N/N)C2=O)c1 (stereo not given) | inactive |  | 
53 | COC12OC3(C4OC41)C(C(=O)O[C@H]3CO[Si](C)(C)C(C)(C)C)C2C(=O)Oc1ccccc1 (stereo not given in full) |  | > 200 | > 200
54 | CC1(C)C2CCC(C2)C1/C=C1/SC(=S)NC1=O (stereo not given) |  | > 200 | 10
55 | Cc1c(C2=NN=C(N=Nc3c(O)cccc3O)/C2=C/c2ccccc2)c(=O)n(-c2ccccc2)n1C | inactive |  | 
56 | Cc1ccc2ccc(=O)oc2c1 |  | > 309 | > 309
57 | CC(C)(C)OC(=O)Cn1ncn(NC(=O)Cc2ccccc2)c1=S |  | > 200 | > 200
58 | C#CCOC(=O)c1ccccc1O |  | > 200 | > 200
59 | CCC(C)C(NC(=O)C(CCCN=C(N)N)NC(=O)C(CC(N)=O)NC(=O)C(Cc1cnc[nH]1)NC(=O)C(N)CC(C)C)C(=O)NC(C(=O)NC(CC(C)C)C(=O)NC(C(=O)NC(Cc1cnc[nH]1)C(=O)O)C(C)O)C(C)CC (stereo not given) (H-LHNRIILTH-OH; configuration not given here) |  | > 44.7 | > 44.7
60 | O=C1c2ccccc2C2CCC1c1ccccc12 (stereo not given) |  | > 32.4 | 26.3
61 | CN(C)C1C(=O)C(C(=O)NCNC2C(=O)N3C2SC(C)(C)C3C(=O)O)=C(O)C2(O)C(=O)C3=C(O)c4c(O)cccc4C(C)(O)C3CC12 (stereo not given) |  | > 269 | 251
62 | CC1(CO)COS(=O)OC1 (stereo not given) |  | > 214 | > 214
